What was measured:
[1] = BCS criteria; cited from earlier work
[2] = tested on: progeria-induced animal model; settings: background art; cited from earlier work
[3] = Excipient compatibility, binary mixtures 1:10, 40° C./75% RH over 2 weeks; type: physicochemical
Experimental: To assess compatibility with excipients, progerinin was mixed with HPMC E3, TPGS, and potassium sorbate in a ratio of 1:10, and the effectiveness of the drug (API) components was measured under 40° C./75% RH condition over 2 weeks and shown in Table 9 and Table 10.

[4] = BCS classification, permeability and solubility of progerinin; type: physicochemical
Source text: In particular, the above-mentioned progerinin is poorly soluble to the extent that its solubility in water is close to zero, and the solubility is very low even in existing ingestible solvents, such that it is necessary to develop a formulation that enables long-term intake and body absorption through the introduction of new technology.

[5] = Stability of spray-dried solid dispersions under high temperature and high humidity for 2 weeks; type: physicochemical; settings: for Appearance / HPLC results Purity / XRPD: open

In the case of `CC1(C)Oc2cc3oc(=O)ccc3cc2C[C@@H]1OC/C=C/c1ccccc1` [progerinin, (7S)-(+)-8,8-dimethyl-7-(3-phenylallyloxy)-7,8-dihydro-6H-pyrano [3,2-g]chromen-2-one], the “solubility in aqueous media” value [1] is listed as “low solubility in aqueous media”, the “survival period of progeria-induced animal model” value [2] is listed as “prolonging a survival period” and the “API(% Area)” value ([3]; 40° C./75% RH, 1 week) is listed as 99.94 % Area. For the same compound, the “RRT = 1.02” value ([3]; 40° C./75% RH, 1 week) was 0.06, the “API(% Area)” value ([3]; 40° C./75% RH, 2 weeks) was 99.95 % Area and the “RRT = 1.02” value ([3]; 40° C./75% RH, 2 weeks) was 0.05. The “API(% Area)” value ([3]; Initial) was 99.94 % Area, the “RRT = 1.02” value ([3]; Initial) was 0.06 and the “compatibility with excipients HPMC E3, TPGS and potassium sorbate” value ([3]; text summary of Tables 9 and 10) was “no effect on the drug”. The solubility in water [4] was “close to zero”, the Appearance ([5]; 25° C./60% RH) was “White” and the “HPLC results Purity” value ([5]; 25° C./60% RH, after 1 week) was 99.85%. The XRPD ([5]; 25° C./60% RH, after 1 week) was “Unchanged”, the “HPLC results Purity” value ([5]; 25° C./60% RH, after 2 weeks) was 99.85% and the XRPD ([5]; 25° C./60% RH, after 2 weeks) was “Unchanged”. For the same compound, the Appearance ([5]; 40° C./75% RH) was “White”, the “HPLC results Purity” value ([5]; 40° C./75% RH, after 1 week) was 99.85% and the XRPD ([5]; 40° C./75% RH, after 1 week) was “Unchanged”. For the same compound, the “HPLC results Purity” value ([5]; 40° C./75% RH, after 2 weeks) was 99.85%, the XRPD ([5]; 40° C./75% RH, after 2 weeks) was “Unchanged” and the Initial purity ([5]; Initial) was 99.85%.

Reference: patent publication US20250017853A1, “NANOSUSPENSION CONTAINING PROGERININ, AND PREPARATION METHOD THEREFOR” (PRG S&Tech Inc., priority 2021, published 2025)
